Consider 17 molecules from patent US11046728B2, “Neuroactive steroids, compositions, and uses thereof” (Sage Therapeutics, Inc., priority 2013, dated 2021).

SMILES strings stand for the structures. Some results are limits rather than exact numbers.

T1 sequence (P14867 28-456): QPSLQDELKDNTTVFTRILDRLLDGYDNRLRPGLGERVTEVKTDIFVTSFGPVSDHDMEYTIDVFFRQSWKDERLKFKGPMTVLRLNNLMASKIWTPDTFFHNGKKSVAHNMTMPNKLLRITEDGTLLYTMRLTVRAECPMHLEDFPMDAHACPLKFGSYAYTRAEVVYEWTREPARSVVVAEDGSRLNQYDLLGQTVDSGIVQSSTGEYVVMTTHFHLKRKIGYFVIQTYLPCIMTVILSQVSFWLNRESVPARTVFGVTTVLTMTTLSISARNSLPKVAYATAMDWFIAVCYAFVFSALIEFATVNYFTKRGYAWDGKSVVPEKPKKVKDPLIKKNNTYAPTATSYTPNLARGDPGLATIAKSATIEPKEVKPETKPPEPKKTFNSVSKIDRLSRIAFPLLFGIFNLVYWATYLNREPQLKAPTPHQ
T1 sequence (P47870 25-512 limits assumed): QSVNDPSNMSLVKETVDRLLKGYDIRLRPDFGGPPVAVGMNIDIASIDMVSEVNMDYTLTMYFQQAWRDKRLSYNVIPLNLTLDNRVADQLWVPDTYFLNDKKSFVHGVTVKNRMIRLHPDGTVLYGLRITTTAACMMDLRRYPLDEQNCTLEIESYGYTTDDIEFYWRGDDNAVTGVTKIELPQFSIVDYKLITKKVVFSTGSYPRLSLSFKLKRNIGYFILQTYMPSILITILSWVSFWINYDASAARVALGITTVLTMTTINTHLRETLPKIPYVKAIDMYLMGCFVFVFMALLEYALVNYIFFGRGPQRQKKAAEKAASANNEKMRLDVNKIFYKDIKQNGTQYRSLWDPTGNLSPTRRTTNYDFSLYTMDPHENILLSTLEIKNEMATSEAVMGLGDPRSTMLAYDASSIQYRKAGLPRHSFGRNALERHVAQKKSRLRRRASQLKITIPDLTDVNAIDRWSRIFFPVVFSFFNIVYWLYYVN
T1 sequence (P18507 40-475 partner): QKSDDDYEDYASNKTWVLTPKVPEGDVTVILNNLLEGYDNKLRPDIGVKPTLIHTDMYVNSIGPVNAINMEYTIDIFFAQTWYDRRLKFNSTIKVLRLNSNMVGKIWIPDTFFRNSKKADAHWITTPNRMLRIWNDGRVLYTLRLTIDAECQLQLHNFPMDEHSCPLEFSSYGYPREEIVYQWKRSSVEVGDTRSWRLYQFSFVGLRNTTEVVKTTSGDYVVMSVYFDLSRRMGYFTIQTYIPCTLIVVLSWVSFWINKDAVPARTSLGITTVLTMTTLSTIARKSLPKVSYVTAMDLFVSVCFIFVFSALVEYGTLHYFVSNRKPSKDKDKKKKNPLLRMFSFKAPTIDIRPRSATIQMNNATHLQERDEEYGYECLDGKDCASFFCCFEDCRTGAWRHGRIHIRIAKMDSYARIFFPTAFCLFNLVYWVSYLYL

One test has as its target T1, GABA receptor α1β2γ2 (Homo sapiens, UniProt P14867+P47870).
T1 construct: expressed in transfected cells; host or cells: LTK cells, stably transfected
Put plainly: Patch clamp electrophysiology, Qpatch in Ltk cells. It counts as cell-based. Particulars: 10 μM test article, GABA EC20 = 2 μM, read-out: GABA (α1β2γ2) Qpatch in Ltk, % efficacy at 10 μM.
As for `CCO[C@H]1C[C@@]2(C)[C@@H](CC[C@@H]3[C@@H]2[C@@H](O)C[C@]2(C)[C@@H](C#N)CC[C@@H]32)C[C@@H]1O` [Compound 10], the Emax at 10 µM is more than 500%.

Take `CO[C@H]1C[C@]2(C)[C@@H](C#N)CC[C@H]2[C@@H]2CC[C@H]3C[C@H](O)[C@@H](OC)C[C@]3(C)[C@H]21` [Compound 12]: the Emax at 10 µM was more than 500%.

As for `COCCO[C@H]1C[C@@]2(C)[C@@H](CC[C@H]3[C@@H]4CC[C@H](C#N)[C@@]4(C)CC(=O)[C@@H]32)C[C@@H]1O` [Compound 17], the Emax at 10 µM lay in the range of 100 to 500%.

As to `CCCO[C@H]1C[C@@]2(C)[C@@H](CC[C@H]3[C@@H]4CC[C@H](C#N)[C@@]4(C)CC(=O)[C@@H]32)C[C@@H]1O` [Compound 21], the Emax at 10 µM is more than 500%.

With `CC(C)O[C@H]1C[C@@]2(C)[C@@H](CC[C@H]3[C@@H]4CC[C@H](C#N)[C@@]4(C)CC(=O)[C@@H]32)C[C@@H]1O` [Compound 22], the Emax at 10 µM lay within 100 to 500%.

In the case of `CO[C@H]1C[C@]2(C)[C@@H](C#N)CC[C@H]2[C@@H]2CC[C@@H]3C[C@H](O)CC[C@]3(C)[C@H]21` [Compound 28], the Emax at 10 µM was more than 500%.

As for `CC(C)CO[C@H]1C[C@]2(C)C3CC[C@]4(C)[C@@H](C#N)CC[C@H]4[C@@H]3CC[C@H]2C[C@@H]1O` (stereo partly shown) [Compound 29], the Emax at 10 µM is more than 500%.

`C[C@@H]1C[C@@]2(C)[C@@H](CC[C@@H]3[C@@H]2CC[C@]2(C)[C@@H](C#N)CC[C@@H]32)C[C@@H]1O` [Compound 33]: the Emax at 10 µM lay within 100 to 500%.

For the molecule `C[C@H]1C[C@@]2(C)[C@@H](CC[C@@H]3[C@@H]2CC[C@]2(C)[C@@H](C#N)CC[C@@H]32)C[C@@H]1O` [Compound 40], the Emax at 10 µM was more than 500%.

Take `CC[C@H]1C[C@@]2(C)[C@@H](CC[C@@H]3[C@@H]2CC[C@]2(C)[C@@H](C#N)CC[C@@H]32)C[C@@H]1O` [Compound 41]: the Emax at 10 µM was more than 500%.

With `CO[C@H]1C[C@]2(C)[C@@H](C#N)CC[C@H]2[C@@H]2CC[C@H]3C[C@H](O)[C@H](C)C[C@]3(C)[C@H]21` [Compound 45], the Emax at 10 µM is more than 500%.

`CO[C@H]1C[C@]2(C)[C@H](C#N)CC[C@H]2[C@@H]2CC[C@H]3C[C@H](O)[C@H](C)C[C@]3(C)[C@H]21` [Compound 46]: the Emax at 10 µM lay within 10 to 100%.

Another test relates to male Sprague Dawley rats. As to the kind of experiment: Loss of righting reflex in rats. Format: in vivo, rat. The settings on record: intravenous bolus 5 mg/kg. How it is done: The plasma pharmacokinetics and a qualitative assessment of sedation were obtained in male Sprague Dawley rats according to the following procedure. Rats were dosed by intravenous bolus dose (60 seconds) via the foot dorsal vein at 5 mg/kg in an appropriate vehicle. In order to assess sedation, rats were gently restrained by hand to a lateral position for dose administration. […] If the animal was unable to return to an upright position, the time was recorded as the onset of loss of righting reflex (LRR). […] Sluggish or incomplete righting twice consecutively within a 30 second interval qualifies as a loss of righting reflex. After onset of LRR, animals were assessed every 5 minutes in the same manner. Recovery of righting reflex is defined as the ability of a rat to right itself completely within 20 seconds of being placed in dorsal recumbency. The duration of LRR is defined as the time interval between LRR and the return of righting reflex.
Turning to `CCO[C@H]1C[C@@]2(C)[C@@H](CC[C@@H]3[C@@H]2[C@@H](O)C[C@]2(C)[C@@H](C#N)CC[C@@H]32)C[C@@H]1O` [Compound 10], the “Duration of LRR (min)” value was “A (“A” indicates the duration of LRR to be <10 min)”.

Turning to `CO[C@H]1C[C@]2(C)[C@@H](C#N)CC[C@H]2[C@@H]2CC[C@H]3C[C@H](O)[C@@H](OC)C[C@]3(C)[C@H]21` [Compound 12], the “Duration of LRR (min)” value was “A (“A” indicates the duration of LRR to be <10 min)”.

With `CCCO[C@H]1C[C@@]2(C)[C@@H](CC[C@H]3[C@@H]4CC[C@H](C#N)[C@@]4(C)CC(=O)[C@@H]32)C[C@@H]1O` [Compound 21], the “Duration of LRR (min)” value is recorded as “C (“C” indicates the duration of LRR to be >20 minutes)”.

`CC(C)O[C@H]1C[C@@]2(C)[C@@H](CC[C@H]3[C@@H]4CC[C@H](C#N)[C@@]4(C)CC(=O)[C@@H]32)C[C@@H]1O` [Compound 23]: the “Duration of LRR (min)” value was “B (“B” indicates the duration of LRR to be 10-20 minutes)”.

For `CCCO[C@H]1C[C@@]2(C)[C@@H](CC[C@@H]3[C@@H]2[C@@H](O)C[C@]2(C)[C@@H](C#N)CC[C@@H]32)C[C@@H]1O` [Compound 26], the “Duration of LRR (min)” value was “B (“B” indicates the duration of LRR to be 10-20 minutes)”.

Take `CO[C@H]1C[C@]2(C)[C@@H](C#N)CC[C@H]2[C@@H]2CC[C@@H]3C[C@H](O)CC[C@]3(C)[C@H]21` [Compound 28]: the “Duration of LRR (min)” value was “A (“A” indicates the duration of LRR to be <10 min)”.

Turning to `CC(C)CO[C@H]1C[C@]2(C)C3CC[C@]4(C)[C@@H](C#N)CC[C@H]4[C@@H]3CC[C@H]2C[C@@H]1O` (stereo partly shown) [Compound 29], the “Duration of LRR (min)” value is listed as “C (“C” indicates the duration of LRR to be >20 minutes)”.

In the case of `C[C@@H]1C[C@@]2(C)[C@@H](CC[C@@H]3[C@@H]2CC[C@]2(C)[C@@H](C#N)CC[C@@H]32)C[C@@H]1O` [Compound 33], the “Duration of LRR (min)” value is recorded as “A (“A” indicates the duration of LRR to be <10 min)”.

With `C[C@H]1C[C@@]2(C)[C@@H](CC[C@@H]3[C@@H]2CC[C@]2(C)[C@@H](C#N)CC[C@@H]32)C[C@@H]1O` [Compound 40], the “Duration of LRR (min)” value is given as “B (“B” indicates the duration of LRR to be 10-20 minutes)”.

With `CC[C@H]1C[C@@]2(C)[C@@H](CC[C@@H]3[C@@H]2CC[C@]2(C)[C@@H](C#N)CC[C@@H]32)C[C@@H]1O` [Compound 41], the “Duration of LRR (min)” value was “C (“C” indicates the duration of LRR to be >20 minutes)”.

As to `CO[C@H]1C[C@]2(C)[C@@H](C#N)CC[C@H]2[C@@H]2CC[C@H]3C[C@H](O)[C@H](C)C[C@]3(C)[C@H]21` [Compound 45], the “Duration of LRR (min)” value is “C (“C” indicates the duration of LRR to be >20 minutes)”.

For another test, the target named is TBPS binding, rat brain cortical membranes in the presence of 5 μM GABA. As to the kind of experiment: 35S-TBPS displacement (steroid inhibition of TBPS binding). The settings on record: read-out: 35S-TBPS Radioligand Displacement (IC50). How it is done: TBPS binding assays using rat brain cortical membranes in the presence of 5 μM GABA has been described (Gee et al, J. Pharmacol. Exp. Then 1987, 241, 346-353; Hawkinson et al, Mol. Pharmacol. 1994, 46, 977-985). Briefly, cortices are rapidly removed following decapitation of carbon dioxide-anesthetized Sprague-Dawley rats (200-250 g). The cortices are homogenized in 10 volumes of ice-cold 0.32 M sucrose using a glass/teflon homogenizer and centrifuged at 1500×g for 10 min at 4° C. The resultant supernatants are centrifuged at 10,000×g for 20 min at 4° C. to obtain the P2 pellets. The P2 pellets are resuspended in 200 mM NaCl/50 mM Na—K phosphate pH 7.4 buffer and centrifuged at 10,000×g for 10 min at 4° C. This washing procedure is repeated twice and the pellets are resuspended in 10 volumes of buffer. Aliquots (100 μL) of the membrane suspensions are incubated with 3 nM [^35S]-TBPS and 5 μL, aliquots of test drug dissolved in dimethyl sulfoxide (DMSO) (final 0.5%) in the presence of 5 μM GABA. The incubation is brought to a final volume of 1.0 mL with buffer. Nonspecific binding is determined in the presence of 2 μM unlabeled TBPS and ranged from 15 to 25%. Following a 90 min incubation at room temp, the assays are terminated by filtration through glass fiber filters (Schleicher and Schuell No. 32) using a cell harvester (Braudel) and rinsed three times with ice-cold buffer. Filter bound radioactivity is measured by liquid scintillation spectrometry. Non-linear curve fitting of the overall data for each drug averaged for each concentration is done using Prism (GraphPad). […] The concentration of test compound producing 50% inhibition (IC50) of specific binding and the maximal extent of inhibition (Imax) are determined for the individual experiments with the same model used for the overall data and then the means±SEMs of the individual experiments are calculated.
Various compounds are or can be screened to determine their potential as modulators of ^35S-TBPS binding in vitro. These assays are or can be performed in accordance with the above discussed procedures.
A word on the IC50: it is the point on the concentration scale where inhibition reaches its midpoint. For `C[C@]12C[C@H](OCCO)[C@@H](O)C[C@@H]1CC[C@@H]1[C@@H]2CC[C@]2(C)[C@@H](C#N)CC[C@@H]12` [Compound 7], the IC50 was more than 500 nM.

`CCO[C@H]1C[C@@]2(C)[C@@H](CC[C@@H]3[C@@H]2[C@@H](O)C[C@]2(C)[C@@H](C#N)CC[C@@H]32)C[C@@H]1O` [Compound 10]: the IC50 was more than 500 nM.

In the case of `CCO[C@H]1C[C@@]2(C)[C@@H](CC[C@@H]3[C@@H]2[C@@H](O)C[C@]2(C)[C@H](C#N)CC[C@@H]32)C[C@@H]1O` [Compound 11], the IC50 is more than 500 nM.

As for `CO[C@H]1C[C@]2(C)[C@@H](C#N)CC[C@H]2[C@@H]2CC[C@H]3C[C@H](O)[C@@H](OC)C[C@]3(C)[C@H]21` [Compound 12], the IC50 is 100 to 500 nM.

Consider `CO[C@H]1C[C@]2(C)[C@H](C#N)CC[C@H]2[C@@H]2CC[C@H]3C[C@H](O)[C@@H](OC)C[C@]3(C)[C@H]21` [Compound 13], for which the IC50 is more than 500 nM.

With `COCCO[C@H]1C[C@@]2(C)[C@@H](CC[C@H]3[C@@H]4CC[C@H](C#N)[C@@]4(C)CC(=O)[C@@H]32)C[C@@H]1O` [Compound 17], the IC50 was more than 500 nM.

Regarding `CCCO[C@H]1C[C@@]2(C)[C@@H](CC[C@H]3[C@@H]4CC[C@H](C#N)[C@@]4(C)CC(=O)[C@@H]32)C[C@@H]1O` [Compound 21], the IC50 lay in the range of 10 to 50 nM.

Consider `CC(C)O[C@H]1C[C@@]2(C)[C@@H](CC[C@H]3[C@@H]4CC[C@H](C#N)[C@@]4(C)CC(=O)[C@@H]32)C[C@@H]1O` [Compound 22], for which the IC50 was in the range of 50 to 100 nM.

With `CC(C)O[C@H]1C[C@@]2(C)[C@@H](CC[C@H]3[C@@H]4CC[C@H](C#N)[C@@]4(C)CC(=O)[C@@H]32)C[C@@H]1O` [Compound 23], the 50% inhibitory concentration (IC50) fell in the range of 100 to 500 nM.

For `CCCO[C@H]1C[C@@]2(C)[C@@H](CC[C@@H]3[C@@H]2[C@@H](O)C[C@]2(C)[C@@H](C#N)CC[C@@H]32)C[C@@H]1O` [Compound 26], the IC50 was in the range of 100 to 500 nM.

On to `CO[C@H]1C[C@]2(C)[C@@H](C#N)CC[C@H]2[C@@H]2CC[C@@H]3C[C@H](O)CC[C@]3(C)[C@H]21` [Compound 28], for which the IC50 was 100 to 500 nM.

Take `CC(C)CO[C@H]1C[C@]2(C)C3CC[C@]4(C)[C@@H](C#N)CC[C@H]4[C@@H]3CC[C@H]2C[C@@H]1O` (stereo partly shown) [Compound 29]: the IC50 was less than 10 nM.

For `C[C@@H]1C[C@@]2(C)[C@@H](CC[C@@H]3[C@@H]2CC[C@]2(C)[C@@H](C#N)CC[C@@H]32)C[C@@H]1O` [Compound 33], the IC50 fell in the range of 10 to 50 nM.

For `C[C@H]1C[C@@]2(C)[C@@H](CC[C@@H]3[C@@H]2CC[C@]2(C)[C@@H](C#N)CC[C@@H]32)C[C@@H]1O` [Compound 40], the IC50 lay within 10 to 50 nM.

With `CC[C@H]1C[C@@]2(C)[C@@H](CC[C@@H]3[C@@H]2CC[C@]2(C)[C@@H](C#N)CC[C@@H]32)C[C@@H]1O` [Compound 41], the IC50 is less than 10 nM.

As for `CO[C@H]1C[C@]2(C)[C@@H](C#N)CC[C@H]2[C@@H]2CC[C@H]3C[C@H](O)[C@H](C)C[C@]3(C)[C@H]21` [Compound 45], the IC50 was 50 to 100 nM.

For `CO[C@H]1C[C@]2(C)[C@H](C#N)CC[C@H]2[C@@H]2CC[C@H]3C[C@H](O)[C@H](C)C[C@]3(C)[C@H]21` [Compound 46], the IC50 lay within 100 to 500 nM.
